According to ChEMBL document CHEMBL5500378, “Discovery of 4-benzylpiperazinequinoline BChE inhibitor that suppresses neuroinflammation for the treatment of Alzheimer's disease” (Eur J Med Chem, 2024):

How the values were obtained:
Cholinesterase [1] = biological target: Cholinesterase (Equus caballus, UniProt P81908); experiment: Inhibition of equine serum BChE using BTC as substrate incubated for 2 mins by Ellman's method; assay type: cell-free
[2] = biological target: Acetylcholinesterase (Electrophorus electricus) (UniProt O42275); experiment: Inhibition of electric eel AChE using ATC as substrate at 10 uM incubated for 2 mins by Ellman's method relative to control
Cholinesterase [3] = biological target: T1, Cholinesterase (Homo sapiens, UniProt P06276); experiment: Inhibition of human BChE using BTC as substrate incubated for 2 mins by Ellman's method
Cholinesterase [4] = biological target: T1, Cholinesterase; experiment: Inhibition of human BChE using BTC as substrate at 10 uM incubated for 2 mins by Ellman's method relative to control
Acetylcholinesterase = Acetylcholinesterase (Electrophorus electricus, UniProt O42275); experiment: Inhibition of electric eel AChE using ATC as substrate incubated for 2 mins by Ellman's method
[5] = system: Antioxidant response element; experiment: Induction of ARE in human HepG2-ARE-C8 cells incubated for 24 hrs by luciferase based assay; assay type: cell-based; conditions: HepG2-ARE-C8, 24 h
[6] = biological target: Cholinesterase (Equus caballus) (UniProt P81908); experiment: Inhibition of equine serum BChE using BTC as substrate at 10 uM incubated for 2 mins by Ellman's method relative to control; assay type: cell-free
[7] = Metabolic stability in human liver microsomes assessed as half life at 2 uM incubated for 60 mins by LC-MS/MS analysis; assay type: ADME, Microsome

Chain of Acetylcholinesterase (Electrophorus electricus) (O42275 24-633 limits assumed): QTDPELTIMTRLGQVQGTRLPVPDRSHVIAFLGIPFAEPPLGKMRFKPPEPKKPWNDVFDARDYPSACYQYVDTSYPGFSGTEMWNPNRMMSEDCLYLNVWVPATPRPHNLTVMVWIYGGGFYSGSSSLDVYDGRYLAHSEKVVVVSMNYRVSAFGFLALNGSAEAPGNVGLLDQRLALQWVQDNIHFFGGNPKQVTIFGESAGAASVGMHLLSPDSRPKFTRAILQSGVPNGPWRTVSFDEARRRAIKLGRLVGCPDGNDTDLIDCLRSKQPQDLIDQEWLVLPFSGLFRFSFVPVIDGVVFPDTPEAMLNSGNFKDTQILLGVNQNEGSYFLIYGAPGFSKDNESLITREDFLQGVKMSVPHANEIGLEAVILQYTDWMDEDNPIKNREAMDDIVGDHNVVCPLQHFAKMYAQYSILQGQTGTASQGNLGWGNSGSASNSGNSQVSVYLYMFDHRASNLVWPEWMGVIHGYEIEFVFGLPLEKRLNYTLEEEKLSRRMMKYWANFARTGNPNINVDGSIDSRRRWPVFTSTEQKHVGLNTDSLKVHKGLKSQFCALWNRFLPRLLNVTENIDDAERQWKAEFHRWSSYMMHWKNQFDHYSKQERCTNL
Chain of Cholinesterase (Equus caballus, UniProt P81908) (P81908 whole entry): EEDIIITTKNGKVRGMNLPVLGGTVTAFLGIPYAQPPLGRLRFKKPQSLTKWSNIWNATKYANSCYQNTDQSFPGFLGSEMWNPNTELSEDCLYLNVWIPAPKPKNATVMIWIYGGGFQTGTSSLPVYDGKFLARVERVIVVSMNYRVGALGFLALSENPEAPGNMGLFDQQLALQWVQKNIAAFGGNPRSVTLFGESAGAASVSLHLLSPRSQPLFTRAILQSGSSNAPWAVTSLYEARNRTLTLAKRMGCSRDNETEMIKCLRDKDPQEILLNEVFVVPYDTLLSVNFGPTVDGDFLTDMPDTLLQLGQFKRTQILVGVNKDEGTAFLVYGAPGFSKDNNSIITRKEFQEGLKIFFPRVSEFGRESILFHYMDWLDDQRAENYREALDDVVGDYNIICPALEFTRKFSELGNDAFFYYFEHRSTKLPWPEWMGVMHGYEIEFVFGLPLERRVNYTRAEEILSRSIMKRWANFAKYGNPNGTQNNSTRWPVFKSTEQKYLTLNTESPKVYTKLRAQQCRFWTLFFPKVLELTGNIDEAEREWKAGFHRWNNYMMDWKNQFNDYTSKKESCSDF
T1 sequence (P06276 whole entry): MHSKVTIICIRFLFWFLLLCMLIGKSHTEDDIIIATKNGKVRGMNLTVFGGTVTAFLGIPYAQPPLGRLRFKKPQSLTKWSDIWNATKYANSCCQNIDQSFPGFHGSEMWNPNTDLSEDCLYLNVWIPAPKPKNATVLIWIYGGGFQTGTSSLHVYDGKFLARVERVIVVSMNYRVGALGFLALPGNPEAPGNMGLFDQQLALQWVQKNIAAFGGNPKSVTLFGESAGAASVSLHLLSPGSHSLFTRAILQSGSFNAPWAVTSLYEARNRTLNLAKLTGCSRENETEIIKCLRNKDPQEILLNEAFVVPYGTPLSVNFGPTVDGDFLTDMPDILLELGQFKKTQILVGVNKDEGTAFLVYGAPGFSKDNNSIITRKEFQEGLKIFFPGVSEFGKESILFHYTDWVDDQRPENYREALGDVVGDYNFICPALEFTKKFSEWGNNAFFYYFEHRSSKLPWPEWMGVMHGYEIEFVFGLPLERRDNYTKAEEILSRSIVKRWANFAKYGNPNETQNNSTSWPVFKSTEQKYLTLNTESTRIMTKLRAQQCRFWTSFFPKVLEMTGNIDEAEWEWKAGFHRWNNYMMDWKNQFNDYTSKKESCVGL
Chain of Acetylcholinesterase (O42275 whole entry): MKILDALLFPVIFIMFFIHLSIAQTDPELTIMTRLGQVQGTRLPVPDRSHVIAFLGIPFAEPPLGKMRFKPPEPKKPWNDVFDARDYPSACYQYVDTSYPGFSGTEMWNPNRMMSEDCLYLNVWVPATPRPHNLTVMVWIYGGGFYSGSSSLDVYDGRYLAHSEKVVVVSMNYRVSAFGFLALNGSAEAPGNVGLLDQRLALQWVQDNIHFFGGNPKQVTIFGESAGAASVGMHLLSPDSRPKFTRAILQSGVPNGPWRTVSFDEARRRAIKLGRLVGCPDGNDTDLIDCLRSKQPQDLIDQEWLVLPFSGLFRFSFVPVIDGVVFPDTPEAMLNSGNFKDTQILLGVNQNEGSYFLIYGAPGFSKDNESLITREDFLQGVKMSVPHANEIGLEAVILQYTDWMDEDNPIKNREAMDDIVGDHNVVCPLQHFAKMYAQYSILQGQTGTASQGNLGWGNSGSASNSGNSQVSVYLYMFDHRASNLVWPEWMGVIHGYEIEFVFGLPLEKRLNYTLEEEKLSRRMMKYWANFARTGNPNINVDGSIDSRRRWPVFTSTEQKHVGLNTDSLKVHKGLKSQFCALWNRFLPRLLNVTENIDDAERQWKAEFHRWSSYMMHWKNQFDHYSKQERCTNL
Chain of Cholinesterase (Equus caballus) (P81908 whole entry): as the sequence (P81908 whole entry) above

SMILES	IC50 (Cholinesterase [1]) [µM]	inhibition [2] [%]	IC50 (Cholinesterase [3]) [µM]	inhibition (Cholinesterase [4]) [%]	IC50 (Acetylcholinesterase) [µM]	EC50 [5] [µM]	inhibition [6] [%]	half-life at 2 µM [7] [min]
COc1ccccc1C(=O)Nc1cnc2ccccc2c1N1CCN(Cc2ccccc2)CC1	0.18	< 50	18.4					
Cc1ccccc1C(=O)Nc1cnc2ccccc2c1N1CCN(Cc2ccccc2)CC1	2.24	< 50	1.2					
O=C(Cc1ccccc1Cl)Nc1cnc2ccccc2c1N1CCN(Cc2ccccc2)CC1	0.77	< 50	1.15					
O=C(Nc1cnc2ccccc2c1N1CCN(Cc2ccccc2)CC1)c1cccc([N+](=O)[O-])c1	1.3	< 50		< 50				
O=C(Nc1cnc2ccccc2c1N1CCN(Cc2ccccc2)CC1)C1CCCCC1	11.9			< 50	2.02			
CC(C)c1ccc(C(=O)Nc2cnc3ccccc3c2N2CCN(Cc3ccccc3)CC2)cc1	1.18	< 50		< 50				
O=C(Nc1cnc2ccccc2c1N1CCN(Cc2ccccc2)CC1)c1ccc(F)cc1	3.31	< 50		< 50				
Cc1ccc(CC(=O)Nc2cnc3ccccc3c2N2CCN(Cc3ccccc3)CC2)cc1	4.73	< 50		< 50				
O=C(Nc1cnc2ccccc2c1N1CCN(Cc2ccccc2)CC1)c1cccc2ccccc12	0.14	< 50	4.13					
CC(C)(C)c1cc(O)ccc1O [E319]						25.6		
O=C(Nc1cnc2ccccc2c1N1CCN(Cc2ccccc2)CC1)c1ccco1	0.42			< 50	4.22			
Cc1cccc(CC(=O)Nc2cnc3ccccc3c2N2CCN(Cc3ccccc3)CC2)c1	0.43	< 50	10.7					
O=C(Nc1cnc2ccccc2c1N1CCN(Cc2ccccc2)CC1)C1CCCO1 (centres undefined)		< 50		< 50			< 50	
Cc1cccc(C(=O)Nc2cnc3ccccc3c2N2CCN(Cc3ccccc3)CC2)c1	0.36	< 50		< 50				
O=C(Cc1ccccc1)Nc1cnc2ccccc2c1N1CCN(Cc2ccccc2)CC1	0.59	< 50	9.23					
O=C(Nc1cnc2ccccc2c1N1CCN(Cc2ccccc2)CC1)c1ccc(Cl)cc1	0.4	< 50	4.33					
O=C(Nc1cnc2ccccc2c1N1CCN(Cc2ccccc2)CC1)C1CCCC1	15.1			< 50	1.34			
O=C(Cc1cccc([N+](=O)[O-])c1)Nc1cnc2ccccc2c1N1CCN(Cc2ccccc2)CC1	6.27	< 50		< 50				
Cc1ccc(C(=O)Nc2cnc3ccccc3c2N2CCN(Cc3ccccc3)CC2)cc1	0.16	< 50	0.77					
O=C(Nc1cnc2ccccc2c1N1CCN(Cc2ccccc2)CC1)c1ccc([N+](=O)[O-])c([N+](=O)[O-])c1	9.04	< 50		< 50				

SMILES	IC50 (Cholinesterase [1]) [µM]	inhibition [2] [%]	IC50 (Cholinesterase [3]) [µM]	inhibition (Cholinesterase [4]) [%]	IC50 (Acetylcholinesterase) [µM]	EC50 [5] [µM]	inhibition [6] [%]	half-life at 2 µM [7] [min]
O=C(Nc1cnc2ccccc2c1N1CCN(Cc2ccccc2)CC1)c1ccc(Cl)cc1Cl	0.23	< 50	2.41					
O=C(Nc1cnc2ccccc2c1N1CCN(Cc2ccccc2)CC1)c1ccccc1Cl	0.18	< 50	1.13					
O=C(Cc1ccc(Cl)cc1)Nc1cnc2ccccc2c1N1CCN(Cc2ccccc2)CC1	0.96	< 50		< 50				
O=C(Nc1cnc2ccccc2c1N1CCN(Cc2ccccc2)CC1)c1cccs1	0.21			< 50	4.04			
O=C(Nc1cnc2ccccc2c1N1CCN(Cc2ccccc2)CC1)c1cccc(Cl)c1	1.58	< 50		< 50				
CCc1ccc(C(=O)Nc2cnc3ccccc3c2N2CCN(Cc3ccccc3)CC2)cc1	2.65	< 50		< 50				
O=C(Nc1cnc2ccccc2c1N1CCN(Cc2ccccc2)CC1)c1ccc2ccccc2c1	0.6	< 50	12					
CCCCc1ccc(C(=O)Nc2cnc3ccccc3c2N2CCN(Cc3ccccc3)CC2)cc1	0.13	< 50	0.55					
N#Cc1ccc(C(=O)Nc2cnc3ccccc3c2N2CCN(Cc3ccccc3)CC2)cc1	7.61	< 50		< 50				
CCCCCc1ccc(C(=O)Nc2cnc3ccccc3c2N2CCN(Cc3ccccc3)CC2)cc1	0.17	< 50	1.59					
Cc1ccc(C(=O)Nc2cnc3ccccc3c2N2CCN(Cc3ccccc3)CC2)c(C)c1	0.4		3.52		3.77			
O=C(Nc1cnc2ccccc2c1N1CCN(Cc2ccccc2)CC1)c1ccc([N+](=O)[O-])cc1	0.7	< 50		< 50				
COc1ccc(C(=O)Nc2cnc3ccccc3c2N2CCN(Cc3ccccc3)CC2)cc1	0.18	< 50		< 50				
O=C(Nc1cnc2ccccc2c1N1CCN(Cc2ccccc2)CC1)c1ccccc1	3.06	< 50	1.68					9.4
O=C(Nc1cnc2ccccc2c1N1CCN(Cc2ccccc2)CC1)c1ccc(F)cc1F	0.46	< 50		< 50				
Cc1cccc(C(=O)Nc2cnc3ccccc3c2N2CCN(Cc3ccccc3)CC2)n1	3.32	< 50		< 50				
COc1cccc(C(=O)Nc2cnc3ccccc3c2N2CCN(Cc3ccccc3)CC2)c1	0.3	< 50		< 50				
O=C(Nc1cnc2ccccc2c1N1CCN(Cc2ccccc2)CC1)c1ccccn1	0.28	< 50	2.66					
O=C(CCc1ccccc1)Nc1cnc2ccccc2c1N1CCN(Cc2ccccc2)CC1	0.44	< 50	5.39					
O=C(Nc1cnc2ccccc2c1N1CCN(Cc2ccccc2)CC1)c1ccc(Br)cc1	1.27	< 50		< 50				
